Activity calls are given as the source filed them. The rule behind the calls is not given here.
How the values were obtained:
[1] = Toxicity in wild type zebrafish embryos assessed as dead embryo at 50 ug/ml treated for 96 hrs post fertilization starting from 6 hrs post fertilization by inverted microscopic analysis relative to control; format: organism-based, Danio rerio; conditions: in vivo, read-out: Activity
[2] = Toxicity in wild type zebrafish embryos assessed as dead embryo at 20 ug/ml treated for 96 hrs post fertilization starting from 6 hrs post fertilization by inverted microscopic analysis relative to control; format: organism-based, Danio rerio; conditions: in vivo, read-out: Activity
[3] = Toxicity in wild type zebrafish embryos assessed as dead embryo at 10 ug/ml treated for 96 hrs post fertilization starting from 6 hrs post fertilization by inverted microscopic analysis relative to control; format: organism-based, Danio rerio; conditions: in vivo, read-out: Activity
[4] = Toxicity in wild type zebrafish embryos assessed as dead embryo at 5 ug/ml treated for 96 hrs post fertilization starting from 6 hrs post fertilization by inverted microscopic analysis relative to control; format: organism-based, Danio rerio; conditions: in vivo, read-out: Activity
[5] = system: Melanocyte; test: Cytotoxicity against wild type zebrafish embryo melanocytes assessed as barely visible cells at 12.5 ug/ml treated for 72 hrs post fertilization starting from 6 to 24 hrs post fertilization; format: cell-based, Danio rerio
[6] = system: Melanocyte; test: Cytotoxicity against wild type zebrafish embryo melanocytes assessed as punctate cells at 12.5 ug/ml treated for 72 hrs post fertilization starting from 6 to 24 hrs post fertilization; format: cell-based, Danio rerio
[7] = system: Melanocyte; test: Cytotoxicity against wild type zebrafish embryo melanocytes assessed as small and rounded cells at 12.5 ug/ml treated for 72 hrs post fertilization starting from 6 to 24 hrs post fertilization; format: cell-based, Danio rerio
[8] = system: Melanocyte; test: Anti-melanogenic activity in wild type zebrafish embryo melanocytes assessed as decrease in pigmentation at 2.5 mg/ml treated for 72 hrs post fertilization starting from 6 to 24 hrs post fertilization; format: functional, cell-based; conditions: Danio rerio
[9] = system: Melanocyte; test: Cytotoxicity against wild type zebrafish embryo melanocytes assessed as change in morphology; format: cell-based, Danio rerio
[10] = system: Melanocyte; test: Cytotoxicity against wild type zebrafish embryo melanocytes assessed as change in morphology at 2.5 mg/ml treated for 72 hrs post fertilization starting from 6 to 24 hrs post fertilization; format: cell-based, Danio rerio
[11] = system: Melanocyte; test: Cytotoxicity against wild type zebrafish embryo melanocytes assessed as number of melanocyte at 2.5 mg/ml treated for 72 hrs post fertilization starting from 6 to 24 hrs post fertilization; format: cell-based, Danio rerio
[12] = species on record: Danio rerio; test: Toxicity in wild type zebrafish embryos assessed as teratogenic embryo at 20 ug/ml treated for 96 hrs post fertilization starting from 6 hrs post fertilization by inverted microscopic analysis relative to control; format: organism-based; conditions: in vivo
[13] = species on record: Danio rerio; test: Toxicity in wild type zebrafish embryos assessed as teratogenic embryo at 5 ug/ml treated for 96 hrs post fertilization starting from 6 hrs post fertilization by inverted microscopic analysis relative to control; format: organism-based; conditions: in vivo
[14] = species on record: Danio rerio; test: Toxicity in wild type zebrafish embryos assessed as growth retardation at 25 ug/ml treated for 96 hrs post fertilization starting from 6 hrs post fertilization by inverted microscopic analysis relative to control; format: organism-based; conditions: in vivo
[15] = species on record: Danio rerio; test: Toxicity in wild type zebrafish embryos assessed as growth retardation at 10 ug/ml treated for 96 hrs post fertilization starting from 6 hrs post fertilization by inverted microscopic analysis relative to control; format: organism-based; conditions: in vivo
[16] = species on record: Danio rerio; test: Toxicity in wild type zebrafish embryos assessed as growth retardation at 5 ug/ml treated for 96 hrs post fertilization starting from 6 hrs post fertilization by inverted microscopic analysis relative to control; format: organism-based; conditions: in vivo
[17] = species on record: Danio rerio; test: Toxicity in wild type zebrafish embryos assessed as notochord at 10 ug/ml treated for 96 hrs post fertilization starting from 6 hrs post fertilization by inverted microscopic analysis relative to control; format: organism-based; conditions: in vivo
[18] = species on record: Danio rerio; test: Toxicity in wild type zebrafish embryos assessed as eyes at 20 ug/ml treated for 96 hrs post fertilization starting from 6 hrs post fertilization by inverted microscopic analysis relative to control; format: organism-based; conditions: in vivo
[19] = species on record: Danio rerio; test: Toxicity in wild type zebrafish embryos assessed as eyes at 5 ug/ml treated for 96 hrs post fertilization starting from 6 hrs post fertilization by inverted microscopic analysis relative to control; format: organism-based; conditions: in vivo
[20] = species on record: Danio rerio; test: Toxicity in wild type zebrafish embryos assessed as otoliths at 25 ug/ml treated for 96 hrs post fertilization starting from 6 hrs post fertilization by inverted microscopic analysis relative to control; format: organism-based; conditions: in vivo
[21] = species on record: Danio rerio; test: Toxicity in wild type zebrafish embryos assessed as otoliths at 10 ug/ml treated for 96 hrs post fertilization starting from 6 hrs post fertilization by inverted microscopic analysis relative to control; format: organism-based; conditions: in vivo
[22] = species on record: Danio rerio; test: Toxicity in wild type zebrafish embryos assessed as otoliths at 5 ug/ml treated for 96 hrs post fertilization starting from 6 hrs post fertilization by inverted microscopic analysis relative to control; format: organism-based; conditions: in vivo
[23] = system: Danio rerio; test: Toxicity in wild type zebrafish embryos assessed as pericardial edema at 10 ug/ml treated for 96 hrs post fertilization starting from 6 hrs post fertilization by inverted microscopic analysis relative to control; format: organism-based; conditions: in vivo
[24] = system: Danio rerio; test: Toxicity in wild type zebrafish embryos assessed as pericardial edema at 5 ug/ml treated for 96 hrs post fertilization starting from 6 hrs post fertilization by inverted microscopic analysis relative to control; format: organism-based; conditions: in vivo
[25] = system: Danio rerio; test: Toxicity in wild type zebrafish embryos assessed as yolk edema at 20 ug/ml treated for 96 hrs post fertilization starting from 6 hrs post fertilization by inverted microscopic analysis relative to control; format: organism-based; conditions: in vivo
[26] = system: Danio rerio; test: Toxicity in wild type zebrafish embryos assessed as yolk edema at 10 ug/ml treated for 96 hrs post fertilization starting from 6 hrs post fertilization by inverted microscopic analysis relative to control; format: organism-based; conditions: in vivo
[27] = system: Danio rerio; test: Toxicity in wild type zebrafish embryos assessed as yolk edema at 5 ug/ml treated for 96 hrs post fertilization starting from 6 hrs post fertilization by inverted microscopic analysis relative to control; format: organism-based; conditions: in vivo
[28] = species on record: Danio rerio; test: Toxicity in wild type zebrafish embryos assessed as heart beat at 20 ug/ml treated for 96 hrs post fertilization starting from 6 hrs post fertilization by inverted microscopic analysis relative to control; format: organism-based; conditions: in vivo
[29] = species on record: Danio rerio; test: Toxicity in wild type zebrafish embryos assessed as heart beat at 10 ug/ml treated for 96 hrs post fertilization starting from 6 hrs post fertilization by inverted microscopic analysis relative to control; format: organism-based; conditions: in vivo
[30] = species on record: Danio rerio; test: Toxicity in wild type zebrafish embryos assessed as heart beat at 5 ug/ml treated for 96 hrs post fertilization starting from 6 hrs post fertilization by inverted microscopic analysis relative to control; format: organism-based; conditions: in vivo
[31] = species on record: Danio rerio; test: Toxicity in wild type zebrafish embryos assessed as blood circulation at 10 ug/ml treated for 96 hrs post fertilization starting from 6 hrs post fertilization by inverted microscopic analysis relative to control; format: organism-based; conditions: in vivo
[32] = species on record: Danio rerio; test: Toxicity in wild type zebrafish embryos assessed as unhatched embryo at 25 ug/ml treated for 96 hrs post fertilization starting from 6 hrs post fertilization by inverted microscopic analysis relative to control; format: organism-based; conditions: in vivo
[33] = species on record: Danio rerio; test: Toxicity in wild type zebrafish embryos assessed as unhatched embryo at 5 ug/ml treated for 96 hrs post fertilization starting from 6 hrs post fertilization by inverted microscopic analysis relative to control; format: organism-based; conditions: in vivo
[34] = species on record: Danio rerio; test: Toxicity in wild type zebrafish embryos assessed as head malformation at 25 ug/ml treated for 96 hrs post fertilization starting from 6 hrs post fertilization by inverted microscopic analysis relative to control; format: organism-based; conditions: in vivo
[35] = species on record: Danio rerio; test: Toxicity in wild type zebrafish embryos assessed as head malformation at 10 ug/ml treated for 96 hrs post fertilization starting from 6 hrs post fertilization by inverted microscopic analysis relative to control; format: organism-based; conditions: in vivo
[36] = species on record: Danio rerio; test: Toxicity in wild type zebrafish embryos assessed as head malformation at 5 ug/ml treated for 96 hrs post fertilization starting from 6 hrs post fertilization by inverted microscopic analysis relative to control; format: organism-based; conditions: in vivo
[37] = species on record: Danio rerio; test: Toxicity in wild type zebrafish embryos assessed as skeletal deformities at 25 ug/ml treated for 96 hrs post fertilization starting from 6 hrs post fertilization by inverted microscopic analysis relative to control; format: organism-based; conditions: in vivo
[38] = species on record: Danio rerio; test: Toxicity in wild type zebrafish embryos assessed as skeletal deformities at 5 ug/ml treated for 96 hrs post fertilization starting from 6 hrs post fertilization by inverted microscopic analysis relative to control; format: organism-based; conditions: in vivo

O=c1cc(-c2ccccc2)c2ccc(O)cc2o1
mortality at 50 ug/ml [1]: 0% | mortality at 20 ug/ml [2]: 0% | mortality at 10 ug/ml [3]: 0% | mortality at 5 ug/ml [4]: 0% | Activity [5]: Non-Toxic | Activity [6]: Non-Toxic | Activity [7]: Non-Toxic | Activity [8]: Active | Activity [9]: Dose-dependent effect and Tde | Activity [10]: Non-Toxic | Activity [11]: Non-Toxic | Activity [12]: 0% | Activity [13]: 0% | Activity [14]: 0% | Activity [15]: 0% | Activity [16]: 0% | Activity [17]: 0% | Activity [18]: 0% | Activity [19]: 0% | Activity [20]: 0% | Activity [21]: 0% | Activity [22]: 0% | Activity [23]: 0% | Activity [24]: 0% | Activity [25]: 0% | Activity [26]: 0% | Activity [27]: 0% | Activity [28]: 0% | Activity [29]: 0% | Activity [30]: 0% | Activity [31]: 0% | Activity [32]: 0% | Activity [33]: 0% | Activity [34]: 0% | Activity [35]: 0% | Activity [36]: 0% | Activity [37]: 0% | Activity [38]: 0%

Oc1ccc(O)cc1 [HYDROQUINONE]
mortality at 50 ug/ml [1]: 100% | mortality at 20 ug/ml [2]: 70% | mortality at 10 ug/ml [3]: 63.3% | mortality at 5 ug/ml [4]: 0% | Activity [5]: Non-Toxic | Activity [6]: Non-Toxic | Activity [7]: Non-Toxic | Activity [9]: Dose-dependent effect and Tde | Activity [12]: 30% | Activity [13]: 100% | Activity [14]: 100% | Activity [15]: 80% | Activity [16]: 0% | Activity [17]: 0% | Activity [18]: 100% | Activity [19]: 0% | Activity [20]: 100% | Activity [21]: 80% | Activity [22]: 0% | Activity [23]: 100% | Activity [24]: 71.7% | Activity [25]: 100% | Activity [26]: 0% | Activity [27]: 0% | Activity [28]: 100% | Activity [29]: 90% | Activity [30]: 0% | Activity [31]: 90% | Activity [32]: 100% | Activity [33]: 0% | Activity [35]: 100% | Activity [36]: 0% | Activity [38]: 0%

O=c1cc(-c2ccccc2)c2c(O)cc(O)cc2o1
mortality at 50 ug/ml [1]: 0% | mortality at 20 ug/ml [2]: 0% | mortality at 10 ug/ml [3]: 0% | mortality at 5 ug/ml [4]: 0% | Activity [5]: Non-Toxic | Activity [6]: Non-Toxic | Activity [7]: Non-Toxic | Activity [8]: Active | Activity [9]: Dose-dependent effect and Tde | Activity [10]: Non-Toxic | Activity [11]: Non-Toxic | Activity [12]: 0% | Activity [13]: 0% | Activity [14]: 0% | Activity [15]: 0% | Activity [16]: 0% | Activity [17]: 0% | Activity [18]: 0% | Activity [19]: 0% | Activity [20]: 0% | Activity [21]: 0% | Activity [22]: 0% | Activity [23]: 0% | Activity [24]: 0% | Activity [25]: 0% | Activity [26]: 0% | Activity [27]: 0% | Activity [28]: 0% | Activity [29]: 0% | Activity [30]: 0% | Activity [31]: 0% | Activity [32]: 0% | Activity [33]: 0% | Activity [34]: 0% | Activity [35]: 0% | Activity [36]: 0% | Activity [37]: 0% | Activity [38]: 0%

O=c1cc(CO)occ1O [KOJIC ACID]
Activity [5]: Non-Toxic | Activity [6]: Non-Toxic | Activity [7]: Non-Toxic | Activity [8]: Active | Activity [9]: Dose-dependent effect and Tde | Activity [10]: Non-Toxic | Activity [11]: Non-Toxic | Activity [14]: 0% | Activity [20]: 0% | Activity [32]: 0% | Activity [34]: 0% | Activity [37]: 0%

Source: ChEMBL document CHEMBL4177616, “Potent anti-melanogenic activity and favorable toxicity profile of selected 4-phenyl hydroxycoumarins in the zebrafish model and the computational molecular modeling studies” (Bioorg Med Chem, 2017)
